Data taken from PMC7126369, “Identification of a selective inhibitor of IDH2/R140Q enzyme that induces cellular differentiation in leukemia cells” (Cell Communication and Signaling : CCS, 2020).
Changes are numbered by the printed parent chain. Read-outs that look alike come from different tables or passages of the source.

Assays:
TF-1(IDH2/R140Q) cells [1] = assay: D-2-HG assay (LC-MS) in cells; format: cell-based; conditions: 72 h, 3 days of treatment, read-out: IC50 of intracellular D-2-HG production
Procedure: (§1) TF-1(IDH2R140Q) cells were seeded in a 12-well plate at a density of 5 × 10^4/mL. The test compound was added in different concentration gradients (3000, 1000, 333.33, 111.11, 37.04, 12.35, 4.12, and 1.37 nM). The cells were collected after 3 days of treatment. The cell pellet was suspended in 100 μL 80% aqueous methanol solution, containing 1 μg/mL Phenacetin as the internal standard. The cell lysate was centrifuged at 13,000 rpm for 10 min. The precipitate was removed at 4 °C and stored in an − 80 °C refrigerator. Before injection, the cell lysate was centrifuged again at 13,000 rpm for 10 min. The supernatant was transferred into the liquid phase cannula for injection. The test instrument was a Q Exactive™ Plus-Orbitrap™ MS, Thermo Scientific benchtop quadrupole-orbitrap high resolution mass spectrometer. The column used was Waters™ ACQUITY™ UPLC HSS-T3–1.8 μm, […] × 100 mm (part No. 186003539). The mobile phase was: Phase A, 0.1% aqueous formic acid (chromatographically pure); and Phase B, acetonitrile (chromatographically pure). The gradients were set as 1% B for 1.5 min → 70% B for 0.5 min → 1% B for 1.5 min → 0% B. The column was re-equilibrated for 2 min between injections. A temperature of 40 °C was set for the column with a flow rate of 0.2 mL/min. […] D-2-HG and Phenacetin were monitored by mass transitions of m/z 147 → m/z 129 and m/z 178 → m/z 147, respectively. […]

IDH2/R140Q = biological target: T1, IDH2/R140Q (Homo sapiens, UniProt P48735, R140Q); assay: Diaphorase/resazurin coupled NADPH depletion enzymatic assay, IDH2/R140Q homodimer; format: biochemical; conditions: read-out: IC50 for α-KG reduction
T1 construct: FLAG (C); purchased BPS Bioscience
T1 sequence (P48735 40-452 R140Q): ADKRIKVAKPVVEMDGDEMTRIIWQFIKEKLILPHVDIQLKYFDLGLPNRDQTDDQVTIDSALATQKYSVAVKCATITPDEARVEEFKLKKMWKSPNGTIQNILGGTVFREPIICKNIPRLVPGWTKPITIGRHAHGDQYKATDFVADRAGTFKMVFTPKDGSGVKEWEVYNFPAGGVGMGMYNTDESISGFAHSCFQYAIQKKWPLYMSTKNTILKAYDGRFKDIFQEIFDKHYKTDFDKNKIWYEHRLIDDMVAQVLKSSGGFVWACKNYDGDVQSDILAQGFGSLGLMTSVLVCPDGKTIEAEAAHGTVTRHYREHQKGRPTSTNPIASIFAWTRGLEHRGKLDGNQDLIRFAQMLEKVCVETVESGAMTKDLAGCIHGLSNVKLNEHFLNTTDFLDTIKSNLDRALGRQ
Procedure: (§2) The compounds were dissolved to a concentration of 20 mM in pure DMSO. Diaphorase/resazurin coupled NADPH deletion or production assays were used to measure the activity of IDH mutants or wild-type IDH (IDH/WT) enzymes. […] Afterwards, 20 μL of the gradient concentrations of compound dilution were added to this mixture and incubated at 25 °C for 1 h or 16 h. […] Further, 20 μL of 4X assay buffer containing 0.6 mM isocitrate was used for enzymatic reaction.

IDH1/R132H = biological target: T2, IDH1/R132H (Homo sapiens, UniProt O75874, R132H); assay: Enzymatic assay, IDH1/R132H; format: biochemical; conditions: incubation time 16 h, read-out: IC50 for α-KG reduction
T2 construct: FLAG (C); purchased BPS Bioscience
Procedure: Analogously, a mixture of the IDH1/R132H enzyme (0.2 μg/mL) and NADPH (30 μM) was prepared in the assay buffer [10 mM MgCl2, 150 mM NaCl, 20 mM Tris-Cl (pH 7.5), 0.05% BSA, and 2 mM β-mercaptoethanol], after which compound dilutions were added and incubated for 16 h at 25 °C. The activity was measured using the same method as for IDH2/R140Q.

IDH1/WT = biological target: T3, IDH1/WT (Homo sapiens, UniProt O75874); assay: Enzymatic assay, IDH1/WT; format: biochemical; conditions: incubation time 16 h, read-out: IC50 for isocitrate to α-KG
T3 construct: FLAG (C); purchased BPS Bioscience
Procedure: A mixture of the IDH1/WT (0.08 μg/mL) and NADP (50 μM) was prepared in the assay buffer [10 mM MgCl2, 150 mM NaCl, 20 mM Tris (pH 7.5), 2 mM β-mercaptoethanol, and 0.05% BSA], after which compound dilutions were added and incubated for 16 h at 25 °C. Other operations were referred to the assay of IDH2/WT.

TF-1(IDH2/R140Q) cells [2] = assay: EPO-induced differentiation assay; format: cell-based; conditions: 1 μM, 7 days
Procedure: TF-1(WT) and TF-1(IDH2/R140Q) cells were washed three times by PBS to remove GM-CSF and treated with CP-17 (1 or 3 μM) and 5 ng/mL EPO for 7 days.
as §1, with “pure).” for “pure). The gradients were set as 1% B for 1.5 min → 70% B for 0.5 min → 1% B for 1.5 min → 0% B. The column was re-equilibrated for 2 min between injections. A temperature of 40 °C was set for the column with a flow rate of 0.2 mL/min.”

TF-1(IDH2/R140Q) cells [3] = assay: GM-CSF-independent proliferation assay; format: cell-based; conditions: 3 μM, 7 days
Procedure: (§3) The cell proliferation was detected by CellTiter 96® AQueous One Solution Cell Proliferation Assay Kit (Promega) according to the protocol. Briefly, TF-1(WT) and TF-1(IDH2/R140Q) cells were cultured in complete growth medium that is supplemented with 2 ng/mL GM-CSF. Prior to the proliferation assay, the cells were washed three times with PBS to eliminate GM-CSF. These cells were transferred to 96 well plates (5000 cells per well), with each well containing 100 μL growth medium without GM-CSF, and treated with CP-17 (1 or 3 μM) for 7 days. Then 20 μL per well of CellTiter 96® AQueous One Solution Reagent were added to each well. The plate was incubated at 37 °C for 4 h in a humidified, 5% CO2 atmosphere, and then the absorbance at 490 nm was recorded using a 96-well plate reader. Three independent repetitive experiments were carried out and analyzed by Graphpad Prism 5.0. […] T-test was used to compare the difference significance with control group and the data meet the assumption of the test.

TF-1(WT) cells = assay: GM-CSF-independent proliferation assay; format: cell-based; conditions: 3 μM, 7 days
Procedure: as §3

TF-1(IDH2/R140Q) cells [4] = assay: Histone methylation assay (western blot); format: cell-based; conditions: 1 and 3 μM, 7 days
Procedure: TF-1(WT) and TF-1(IDH2/R140Q) cells were treated with CP-17 (1 or 3 μM) in the presence of recombinant human GM-CSF for 7 days and then lysed and evaluated for the expression of H3K9me3, H3K4me3, H3K27me3, and H3 with specific antibodies by western blot. The total amount of histone H3 was used as the loading control. Three independent repetitive experiments were carried out.

IDH2/WT = biological target: T4, IDH2/WT (Homo sapiens, UniProt P48735); assay: Diaphorase/resazurin coupled NADPH production enzymatic assay, IDH2/WT; format: biochemical; conditions: incubation time 16 h, read-out: IC50 for isocitrate to α-KG
T4 construct: FLAG (C); purchased BPS Bioscience
T4 sequence (P48735 40-452): T1 sequence (P48735 40-452 R140Q) with Q101R
Procedure: as §2

[5] = system: AML patients carrying mutant IDH2; parameters: method as in PMID 29346478, PMID 29346477; conditions: patients responding to Enasidenib; cited from earlier work

T3 sequence (O75874 whole entry): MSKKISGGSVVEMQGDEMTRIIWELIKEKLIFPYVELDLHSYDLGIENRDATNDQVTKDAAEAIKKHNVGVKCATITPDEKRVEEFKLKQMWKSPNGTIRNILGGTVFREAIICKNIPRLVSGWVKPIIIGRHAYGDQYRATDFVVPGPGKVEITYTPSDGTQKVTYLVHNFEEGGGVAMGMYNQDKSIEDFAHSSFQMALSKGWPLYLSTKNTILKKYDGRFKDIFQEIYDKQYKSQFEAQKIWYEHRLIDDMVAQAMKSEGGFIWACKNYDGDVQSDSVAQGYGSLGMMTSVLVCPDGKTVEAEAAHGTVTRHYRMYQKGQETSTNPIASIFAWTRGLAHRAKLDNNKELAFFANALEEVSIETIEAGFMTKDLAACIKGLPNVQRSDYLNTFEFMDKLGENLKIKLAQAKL
T2 sequence (O75874 whole entry R132H): as the sequence (O75874 whole entry) above, with R132H counted along it

| IC50 (TF-1(IDH2/R140Q) cells [1]) [nM] | IC50 (IDH2/R140Q; incubation time 1 h) [nM] | IC50 (IDH2/R140Q; incubation time 16 h) [nM] | IC50 (IDH1/R132H) [nM] | IC50 (IDH1/WT) [nM] | IC50 (IDH2/WT) [nM] | SMILES | EPO-induced differentiation (color change, hemoglobin γ expression) (TF-1(IDH2/R140Q) cells [2]) | GM-CSF-independent growth (TF-1(IDH2/R140Q) cells [3]) | Proliferation (TF-1(WT) cells) | Histone methylation (H3K4me3, H3K9me3, H3K27me3) (TF-1(IDH2/R140Q) cells [4]) | Patients who develop differentiation syndrome [5] [%] |
| --- | --- | --- | --- | --- | --- | --- | --- | --- | --- | --- | --- |
| 141 | 99.9 | 40.8 | > 5000 | > 5000 | 2270 | Cc1ccc(Cl)cc1NC(=O)Nc1cc(NC(=O)c2ccccc2)ccc1N1CCCC1 [CP-17, N-(3-(3-(5-chloro-2-methylphenyl)ureido)-4-(pyrrolidin-1-yl)phenyl)benzamide] | restored the EPO-induced color change and hemoglobin γ expression | significantly inhibited | no obvious effect | dose-dependent decrease in histone methylation | – |
| – | – | – | – | – | – | CC(C)(O)CNc1nc(Nc2ccnc(C(F)(F)F)c2)nc(-c2cccc(C(F)(F)F)n2)n1 [Enasidenib] | – | – | – | – | 11.7 |
